Experimental data taken from ChEMBL document CHEMBL1140924, “Biomedical application of orexin/hypocretin receptor ligands in neuroscience” (J Med Chem, 2009).

How the values were obtained:
Orexin receptor type 2 [1] = biological target: T1, Orexin receptor type 2 (Homo sapiens, UniProt O43614); assay: Binding affinity to OX2 receptor
T1 sequence (O43614 whole entry): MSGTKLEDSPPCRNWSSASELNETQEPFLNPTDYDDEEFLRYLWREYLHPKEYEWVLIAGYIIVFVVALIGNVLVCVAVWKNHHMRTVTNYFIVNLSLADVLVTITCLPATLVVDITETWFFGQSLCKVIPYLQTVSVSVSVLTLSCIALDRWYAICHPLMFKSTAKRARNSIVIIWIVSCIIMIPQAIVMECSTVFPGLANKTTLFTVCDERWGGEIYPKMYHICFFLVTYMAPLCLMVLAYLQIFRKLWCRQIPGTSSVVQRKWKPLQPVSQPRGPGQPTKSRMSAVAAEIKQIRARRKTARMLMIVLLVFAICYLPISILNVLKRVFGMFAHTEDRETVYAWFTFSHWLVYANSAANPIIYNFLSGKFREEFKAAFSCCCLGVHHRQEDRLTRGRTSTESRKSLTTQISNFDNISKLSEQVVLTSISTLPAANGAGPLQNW

[2] = Selectivity of Ki for OX1 receptor to Ki for OX2 receptor
[3] = biological target: T2, Orexin/Hypocretin receptor type 1 (Homo sapiens, UniProt O43613); assay: Binding affinity to OX1 receptor
T2 sequence (O43613 whole entry): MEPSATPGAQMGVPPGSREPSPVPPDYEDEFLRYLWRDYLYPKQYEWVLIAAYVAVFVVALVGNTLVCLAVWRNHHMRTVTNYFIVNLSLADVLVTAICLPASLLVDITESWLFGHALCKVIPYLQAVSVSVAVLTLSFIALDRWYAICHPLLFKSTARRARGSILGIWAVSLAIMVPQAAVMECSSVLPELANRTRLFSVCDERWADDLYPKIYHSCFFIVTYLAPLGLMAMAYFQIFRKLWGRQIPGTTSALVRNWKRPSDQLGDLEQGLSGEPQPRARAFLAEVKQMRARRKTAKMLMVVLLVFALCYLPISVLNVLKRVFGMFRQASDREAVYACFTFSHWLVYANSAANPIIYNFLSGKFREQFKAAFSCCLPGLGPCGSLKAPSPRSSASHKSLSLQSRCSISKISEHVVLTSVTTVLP

Orexin receptor type 2 [4] = biological target: T1, Orexin receptor type 2; assay: Inhibition of OX2 receptor
[5] = biological target: T2, Orexin/Hypocretin receptor type 1; assay: Inhibition of OX1 receptor
[6] = biological target: T3, Orexin/Hypocretin receptor type 1 (Homo sapiens) (UniProt O43613); assay: Antagonist activity at human OX1 receptor expressed in CHO cells assessed as inhibition of receptor-mediated calcium response by FLIPR; format: functional, cell-based
T3 sequence (whole entry): T2 sequence (O43613 whole entry)

CC1(C)OC[C@H](NC(=O)Nc2cccc(Br)c2)[C@H](c2ccccc2)O1
Ki (Orexin receptor type 2 [1]): > 10000 nM
Ratio [2]: 9
Ki [3]: 1000 nM

COc1ccc(CC2c3cc(OC)c(OC)cc3CCN2CC(=O)NCc2ccncc2)cc1OC (racemic)
IC50 (Orexin receptor type 2 [4]): 10000 nM
IC50 [5]: 1140 nM

COc1ccc(CC2c3cc(OC)c(OC)cc3CCN2CC(=O)NC2CCc3ccccc32)cc1 (stereo not drawn)
IC50 (Orexin receptor type 2 [4]): > 10000 nM
IC50 [5]: 1180 nM

COc1cc2c(cc1OC)C(Cc1ccc3c(c1)OCO3)N(CC(=O)NCc1ccccc1)CC2 (stereo not drawn)
IC50 (Orexin receptor type 2 [4]): > 10000 nM
IC50 [5]: 9480 nM

CN(C)c1ccc(NC(=O)Nc2ccnc3ccccc23)cc1Cl
pKb [6]: 7.4

COc1cc2c(cc1OC)C(CCc1ccc(F)c(F)c1)N(C(C(=O)NCC1CC1)c1ccccc1)CC2 (stereo not drawn)
IC50 (Orexin receptor type 2 [4]): 14 nM
IC50 [5]: 552 nM

COc1cc2c(cc1OC)C(Cc1ccc(Cl)c(Cl)c1)N(CC(=O)NCc1ccccc1)CC2 (stereo not drawn)
IC50 (Orexin receptor type 2 [4]): 281 nM
IC50 [5]: 118 nM

Cn1ccc2cc(NC(=O)Nc3ccncc3)ccc21
pKb [6]: < 5

COc1cccc(CC2c3cc(OC)c(OC)cc3CCN2CC(=O)NC2CCc3ccccc32)c1 (stereo not drawn)
IC50 (Orexin receptor type 2 [4]): 5660 nM
IC50 [5]: 1110 nM

COc1ccc(CC2c3cc(OC)c(OC)cc3CCN2CC(=O)NCc2cccnc2)cc1OC (racemic)
IC50 (Orexin receptor type 2 [4]): 10000 nM
IC50 [5]: 268 nM

CCN(CC)c1ccc(NC(=O)Nc2ccnc3ccccc23)cc1
pKb [6]: 7.4

CC1(C)OC[C@H](NC(=O)Nc2ccc(Br)cc2)[C@H](c2ccccc2)O1
Ki (Orexin receptor type 2 [1]): > 10000 nM
Ratio [2]: 40
Ki [3]: 251 nM

CCCCNC(=O)C(c1ccccc1)N1CCc2cc(OC)c(OC)cc2C1CCc1ccc(F)c(F)c1 (stereo not drawn)
IC50 (Orexin receptor type 2 [4]): 19 nM
IC50 [5]: 1910 nM

O=C(Nc1ccc2ncoc2c1)Nc1ccnc2ccccc12
pKb [6]: 7

COc1ccc(CC2c3cc(OC)c(OC)cc3CCN2CC(=O)NC2Cc3ccccc3C2)cc1OC (racemic)
IC50 (Orexin receptor type 2 [4]): 1100 nM
IC50 [5]: 129 nM

COc1ccc(CC2c3cc(OC)c(OC)cc3CCN2CC(=O)NCc2ccno2)cc1OC (racemic)
IC50 (Orexin receptor type 2 [4]): 10000 nM
IC50 [5]: 731 nM

O=C(Nc1ccc2[nH]ccc2c1)Nc1ccnc2ccccc12
pKb [6]: 6.2

CC1(C)OC[C@H](NC(=O)Nc2ccccc2F)[C@H](c2ccccc2)O1
Ki (Orexin receptor type 2 [1]): > 10000 nM
Ratio [2]: 20
Ki [3]: 398 nM

COc1ccc(CC2c3cc(OC)c(OC)cc3CCN2CC(=O)NCc2ccccc2)cc1OC (racemic)
IC50 (Orexin receptor type 2 [4]): 8150 nM

COc1cc2c(cc1OC)C(Cc1ccc3c(c1)OCO3)N(CC(=O)NC1CCc3ccccc31)CC2 (stereo not drawn)
IC50 (Orexin receptor type 2 [4]): > 10000 nM
IC50 [5]: 1460 nM

Cn1ccc2cc(NC(=O)Nc3cccc4ccccc34)ccc21
pKb [6]: < 6.3

CC1(C)OC[C@H](NC(=O)Nc2ccc(Br)cc2Cl)[C@H](c2ccccc2)O1
Ki (Orexin receptor type 2 [1]): > 5010 nM
Ratio [2]: 900
Ki [3]: 6.31 nM

CC(C)c1ccccc1NC(=O)N[C@H]1COC(C)(C)O[C@H]1c1ccccc1
Ki (Orexin receptor type 2 [1]): > 10000 nM
Ratio [2]: 4
Ki [3]: 2510 nM

COc1cc2c(cc1OC)C(Cc1ccccc1)N(CC(=O)NC1CCc3ccccc31)CC2 (stereo not drawn)
IC50 (Orexin receptor type 2 [4]): > 10000 nM
IC50 [5]: 4460 nM

COc1ccc(CC2c3cc(OC)c(OC)cc3CCN2C(C(=O)Nc2ccc3c(c2)OCO3)c2ccccc2)cc1OC (stereo not drawn)
IC50 (Orexin receptor type 2 [4]): 1810 nM
IC50 [5]: 21 nM

O=C(Nc1ccccc1)Nc1ccnc2ccccc12
pKb [6]: < 6.1

COc1ccc(CC2c3cc(OC)c(OC)cc3CCN2CC(=O)N(C)C2CCCCC2)cc1OC (racemic)
IC50 (Orexin receptor type 2 [4]): 10000 nM
IC50 [5]: 1560 nM

CN(C)c1ccc(NC(=O)Nc2ccnc3ccccc23)cc1
pKb [6]: 7.8

COc1ccc(CC2c3cc(OC)c(OC)cc3CCN2CC(=O)NC2CCc3ccccc32)cc1OC (racemic)
IC50 (Orexin receptor type 2 [4]): 679 nM
IC50 [5]: 49 nM

CNC(=O)[C@@H](c1ccccc1)N1CCc2cc(OC)c(OC)cc2[C@@H]1CCc1ccc(C(F)(F)F)cc1 [ALMOREXANT]
IC50 (Orexin receptor type 2 [4]): 8 nM

Nc1ccc(NC(=O)Nc2ccnc3ccccc23)cc1
pKb [6]: 6.1

COc1ccc(CC2c3cc(OC)c(OC)cc3CCN2CC(=O)N(C)Cc2ccccc2)cc1OC (racemic)
IC50 (Orexin receptor type 2 [4]): 10000 nM
IC50 [5]: 2010 nM

Cc1nc2ccc(NC(=O)Nc3ccnc4ncccc34)cc2o1
pKb [6]: 6.5

Cc1nc2ccc(NC(=O)Nc3ccnc4ccncc34)cc2o1
pKb [6]: 5.9

CC1(C)OC[C@H](NC(=O)Nc2ccccc2Cl)[C@H](c2ccccc2)O1
Ki (Orexin receptor type 2 [1]): > 10000 nM
Ratio [2]: 100
Ki [3]: 79.4 nM
